{
  "source": "paper PMC8205226",
  "about": "“HIV-1 Integrase Inhibitors with Modifications That Affect Their Potencies against Drug Resistant Integrase Mutants” (ACS Infectious Diseases, 2021)",
  "type_in_all_cases": "cell-based",
  "key": {"HIV-1 IN mutant S119R": {"test_system": "HIV-1 IN mutant S119R", "assay": "single-round infectivity assay, S119R IN mutant", "description": "(§1) The EC50 values were determined using a vector that carries the IN mutant in a single round infection assay. […] Error bars represent the standard deviations of independent experiments, n = 4, performed in triplicate.\n(§2) WT and mutant HIV-1 viral vectors were used in single-round infectivity assays to determine the antiviral potencies (EC50 values) of the compounds and the effects of the mutants on the EC50 values as previously described.[30],[54] Single round infectivity measurements were determined as done previously.[38]\n(§3) The vector pNLNgoMIVR-ΔENV.LUC has been described previously.[26] To produce the new IN mutants used in this study, the IN open reading frame was removed from pNLNgoMIVR-ΔENV.LUC by digestion with KpnI and SalI, and the resulting fragment was inserted between the KpnI and SalI sites of pBluescript KS+. Using that construct as the wild-type template, we prepared the following HIV-1 IN mutants using the QuikChange II XL site directed mutagenesis kit (Agilent Technologies, Santa Clara, CA) protocol: N117A, N117H, P142A, P142H, P142S, Y143C, Y143H, S230R, R231G, and R231K. The following sense oligonucleotides were used with matching cognate antisense oligonucleotides (not shown) (Integrated DNA Technologies, Coralville, IA) in the mutagenesis: N117A, 5′-[…]-3′; N117H, 5′-[…]-3′; P142A, 5′-[…]-3′; P142H, 5′-[…]-3′; P142S, 5′-[…]-3′; Y143C, 5′- […]-3′; Y143H, 5′-[…]-3′; S230R, 5′- […]-3′; R231G, 5′-[…]-3′; R231K, 5′-[…]-3′."}, "HIV-1 IN mutant N117A": {"test_system": "HIV-1 IN mutant N117A", "assay": "single-round infectivity assay, N117A IN mutant", "description": "as §1, §2, §3"}, "HIV-1 IN mutant P142S": {"test_system": "HIV-1 IN mutant P142S", "assay": "single-round infectivity assay, P142S IN mutant", "description": "(§4) Figure 4 Mutations in the β5-α3 loop affect the antiviral potencies of the new compounds. The EC50 values were determined using a vector that carries the IN mutant in a single round infection assay. […] Error bars represent the standard deviations of independent experiments, n = 4, performed in triplicate.\nas §2, §3"}, "HIV-1 IN mutant S230R": {"test_system": "HIV-1 IN mutant S230R", "assay": "single-round infectivity assay, S230R IN mutant", "description": "(§5) Figure 5 Antiviral potencies of the new compounds against IN with mutations in the […]. The EC50 values were determined using a vector that carries the IN mutant in a single round infection assay. […] Error bars represent the standard deviations of independent experiments, n = 4, performed in triplicate.\nas §2, §3"}, "HIV-1 IN mutant G118R": {"test_system": "HIV-1 IN mutant G118R", "assay": "single-round infectivity assay, G118R IN mutant", "description": "as §1, §2, §3"}, "HIV-1 IN mutant R231K": {"test_system": "HIV-1 IN mutant R231K", "assay": "single-round infectivity assay, R231K IN mutant", "description": "as §5, §2, §3"}, "WT HIV-1": {"test_system": "WT HIV-1", "assay": "single-round infectivity assay, WT HIV-1 IN vector", "details": "Human immunodeficiency virus 1, read-out: EC50 values WT, vector carrying WT HIV-1 IN, single round infection, n = 4; new compounds", "description": "(§6) Figure 2 Antiviral activities of the new compounds against RAL-resistant mutants. The EC50 values were determined using a vector that carries WT HIV-1 IN and the RAL-resistant mutants in a single round infection assay. […] Error bars represent the standard deviations of independent experiments, n = 4, performed in triplicate. The graph has a maximum value of 550 nM.\nas §2, §3"}, "HIV-1 IN mutant N117H": {"test_system": "HIV-1 IN mutant N117H", "assay": "single-round infectivity assay, N117H IN mutant", "description": "as §1, §2, §3"}, "HIV-1 IN mutant Y143C": {"test_system": "HIV-1 IN mutant Y143C", "assay": "single-round infectivity assay, Y143C IN mutant", "description": "as §4, §2, §3"}, "HIV-1 IN mutant Y143H": {"test_system": "HIV-1 IN mutant Y143H", "assay": "single-round infectivity assay, Y143H IN mutant", "description": "as §4, §2, §3"}, "HIV-1 IN mutant Y143R": {"test_system": "HIV-1 IN mutant Y143R", "assay": "single-round infectivity assay, Y143R IN mutant", "description": "as §6, §2, §3"}, "HIV-1 IN mutant R231G": {"test_system": "HIV-1 IN mutant R231G", "assay": "single-round infectivity assay, R231G IN mutant", "description": "as §5, §2, §3"}, "HIV-1 IN mutant P142A": {"test_system": "HIV-1 IN mutant P142A", "assay": "single-round infectivity assay, P142A IN mutant", "description": "as §4, §2, §3"}, "HIV-1 IN mutant P142H": {"test_system": "HIV-1 IN mutant P142H", "assay": "single-round infectivity assay, P142H IN mutant", "description": "as §1\nSingle round infectivity measurements were determined as done previously.[38]\nas §3"}, "[1]": {"test_system": "HIV-1 IN double mutant G140S/Q148H", "assay": "single-round infectivity assay, G140S/Q148H IN double mutant", "description": "as §6, §2, §3"}, "HIV-1 IN mutant N155H": {"test_system": "HIV-1 IN mutant N155H", "assay": "single-round infectivity assay, N155H IN mutant", "description": "as §6, §2, §3"}, "[2]": {"details": "fold change in EC50, IN mutant versus WT HIV-1"}},
  "data": [
    {"smiles": "O=C(NCc1ccc(F)cc1F)c1c(O)c2c(CO)ccnc2n(O)c1=O", "note": "[5j, N-(2,4-Difluorobenzyl)-1,4-dihydroxy-5-(hydroxymethyl)-2-oxo-1,2-dihydro-1,8-naphthyridine-3-carboxamide]", "values": [
      {"measurement": "ratio of the EC50s (our compound relative to DTG) against S119R", "setting": "HIV-1 IN mutant S119R; EC50 compound / EC50 DTG", "result": 3.0},
      {"measurement": "EC50", "setting": "HIV-1 IN mutant S119R; Human immunodeficiency virus 1, read-out: EC50 values S119R", "result": "7 ± 0.2", "unit": "nM"},
      {"measurement": "FC S119R", "setting": "HIV-1 IN mutant S119R; [2]", "result": 1.0},
      {"measurement": "ratio of the EC50s (our compound relative to DTG) against N117A", "setting": "HIV-1 IN mutant N117A; EC50 compound / EC50 DTG", "result": 26.8},
      {"measurement": "EC50", "setting": "HIV-1 IN mutant N117A; Human immunodeficiency virus 1, read-out: EC50 values N117A", "result": "13.4 ± 1.5", "unit": "nM"},
      {"measurement": "FC N117A", "setting": "HIV-1 IN mutant N117A; [2]", "result": 1.8},
      {"measurement": "ratio of the EC50s (our compound relative to DTG) against P142S", "setting": "HIV-1 IN mutant P142S; EC50 compound / EC50 DTG", "result": 1.6},
      {"measurement": "EC50", "setting": "HIV-1 IN mutant P142S; Human immunodeficiency virus 1, read-out: EC50 values P142S", "result": "3.5 ± 0.5", "unit": "nM"},
      {"measurement": "ratio of the EC50s (our compound relative to DTG) against S230R", "setting": "HIV-1 IN mutant S230R; EC50 compound / EC50 DTG", "result": 1.7},
      {"measurement": "EC50", "setting": "HIV-1 IN mutant S230R; Human immunodeficiency virus 1, read-out: EC50 values S230R", "result": "7.7 ± 1", "unit": "nM"},
      {"measurement": "FC S230R", "setting": "HIV-1 IN mutant S230R; [2]", "result": 1.1},
      {"measurement": "ratio of the EC50s (our compound relative to DTG) against G118R", "setting": "HIV-1 IN mutant G118R; EC50 compound / EC50 DTG", "result": 2.3},
      {"measurement": "EC50", "setting": "HIV-1 IN mutant G118R; Human immunodeficiency virus 1, read-out: EC50 values G118R", "result": "30 ± 5", "unit": "nM"},
      {"measurement": "ratio of the EC50s (our compound relative to DTG) against R231K", "setting": "HIV-1 IN mutant R231K; EC50 compound / EC50 DTG", "result": 1.4},
      {"measurement": "EC50", "setting": "HIV-1 IN mutant R231K; Human immunodeficiency virus 1, read-out: EC50 values R231K, single round infection, n = 4", "result": "5.9 ± 0.2", "unit": "nM"},
      {"measurement": "FC R231K", "setting": "HIV-1 IN mutant R231K; [2]", "result": 0.8},
      {"measurement": "EC50", "setting": "WT HIV-1", "result": "7.3 ± 0.6", "unit": "nM"},
      {"measurement": "ratio of the EC50s (our compound relative to DTG) against N117H", "setting": "HIV-1 IN mutant N117H; EC50 compound / EC50 DTG", "result": 1.4},
      {"measurement": "EC50", "setting": "HIV-1 IN mutant N117H; Human immunodeficiency virus 1, read-out: EC50 values N117H", "result": "3.4 ± 0.4", "unit": "nM"},
      {"measurement": "FC N117H", "setting": "HIV-1 IN mutant N117H; [2]", "result": 0.5},
      {"measurement": "ratio of the EC50s (our compound relative to DTG) against Y143C", "setting": "HIV-1 IN mutant Y143C; EC50 compound / EC50 DTG", "result": 1.7},
      {"measurement": "EC50", "setting": "HIV-1 IN mutant Y143C; Human immunodeficiency virus 1, read-out: EC50 values Y143C, single round infection, n = 4", "result": "2.4 ± 0.1", "unit": "nM"},
      {"measurement": "FC Y143C", "setting": "HIV-1 IN mutant Y143C; [2]", "result": 0.3},
      {"measurement": "ratio of the EC50s (our compound relative to DTG) against Y143H", "setting": "HIV-1 IN mutant Y143H; EC50 compound / EC50 DTG", "result": 1.2},
      {"measurement": "EC50", "setting": "HIV-1 IN mutant Y143H; Human immunodeficiency virus 1, read-out: EC50 values Y143H, single round infection, n = 4", "result": "2.6 ± 0.2", "unit": "nM"},
      {"measurement": "FC Y143H", "setting": "HIV-1 IN mutant Y143H; [2]", "result": 0.4},
      {"measurement": "ratio of the EC50s (our compound relative to DTG) against Y143R", "setting": "HIV-1 IN mutant Y143R; EC50 compound / EC50 DTG", "result": 0.6},
      {"measurement": "EC50", "setting": "HIV-1 IN mutant Y143R; Human immunodeficiency virus 1, read-out: EC50 values Y143R", "result": "2.6 ± 0.4", "unit": "nM"},
      {"measurement": "FC Y143R", "setting": "HIV-1 IN mutant Y143R; [2]", "result": 0.4},
      {"measurement": "ratio of the EC50s (our compound relative to DTG) against R231G", "setting": "HIV-1 IN mutant R231G; EC50 compound / EC50 DTG", "result": 1.8},
      {"measurement": "EC50", "setting": "HIV-1 IN mutant R231G; Human immunodeficiency virus 1, read-out: EC50 values R231G", "result": "2.5 ± 0.6", "unit": "nM"},
      {"measurement": "FC R231G", "setting": "HIV-1 IN mutant R231G; [2]", "result": 0.3},
      {"measurement": "ratio of the EC50s (our compound relative to DTG) against P142A", "setting": "HIV-1 IN mutant P142A; EC50 compound / EC50 DTG", "result": 1.9},
      {"measurement": "EC50", "setting": "HIV-1 IN mutant P142A; Human immunodeficiency virus 1, read-out: EC50 values P142A", "result": "4.7 ± 0.1", "unit": "nM"},
      {"measurement": "ratio of the EC50s (our compound relative to DTG) against P142H", "setting": "HIV-1 IN mutant P142H; EC50 compound / EC50 DTG", "result": 1.3},
      {"measurement": "EC50", "setting": "HIV-1 IN mutant P142H; Human immunodeficiency virus 1, read-out: EC50 values P142H", "result": "3.5 ± 0.1", "unit": "nM"},
      {"measurement": "ratio of the EC50s (our compound relative to DTG) against G140S/Q148H", "setting": "[1]; EC50 compound / EC50 DTG", "result": 2.5},
      {"measurement": "EC50", "setting": "[1]; Human immunodeficiency virus 1, read-out: EC50 values G140S/Q148H", "result": "14.7 ± 1.1", "unit": "nM"},
      {"measurement": "FC G140S/Q148H", "setting": "[1]; [2]", "result": 2.0},
      {"measurement": "ratio of the EC50s (our compound relative to DTG) against N155H", "setting": "HIV-1 IN mutant N155H; EC50 compound / EC50 DTG", "result": 4.1},
      {"measurement": "EC50", "setting": "HIV-1 IN mutant N155H; Human immunodeficiency virus 1, read-out: EC50 values N155H", "result": "14.9 ± 3.6", "unit": "nM"},
      {"measurement": "FC N155H", "setting": "HIV-1 IN mutant N155H; [2]", "result": 2.0}
    ]}
  ]
}
